This note sets out measurements from patent publication US20240327364A1, “THERAPEUTIC TARGETING OF GPR68 TO INDUCE FERROPTOSIS” (University Of Maryland, Baltimore, priority 2023, published 2024).

One test deals with T1, MST1 (Homo sapiens, UniProt Q13043).
T1 construct: purchased DiscoveRx
In words: KinomeScan. It counts as binding. To be noted: read-out: % Control.

In a further test the target is T2, KIT(V559D, T670I) (Homo sapiens, UniProt P10721, T670I/V559D).
T2 construct: purchased DiscoveRx
The experiment in a line: KinomeScan. In kind it is binding. To be noted: read-out: % Control.

For test [1], the target named is T3, TYK2(JH1domain-catalytic) (Homo sapiens, UniProt P29597).
T3 construct: TYK2(JH1domain-catalytic); purchased DiscoveRx
T3 sequence (P29597 897-1176 limits assumed): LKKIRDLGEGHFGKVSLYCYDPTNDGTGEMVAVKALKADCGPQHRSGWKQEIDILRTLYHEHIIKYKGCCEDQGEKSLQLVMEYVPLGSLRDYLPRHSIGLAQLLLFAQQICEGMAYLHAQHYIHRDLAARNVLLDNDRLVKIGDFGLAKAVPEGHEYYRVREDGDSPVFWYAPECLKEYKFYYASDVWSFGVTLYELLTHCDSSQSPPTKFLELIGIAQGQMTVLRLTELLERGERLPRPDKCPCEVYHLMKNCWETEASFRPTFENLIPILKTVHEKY
The experiment in a line: KinomeScan. To be noted: read-out: % Control. It counts as binding.

The target of another test is CDKL1 (Homo sapiens, UniProt Q00532). The experiment in a line: KinomeScan. In kind it is binding. Particulars: read-out: % Control.
Chain of CDKL1 (Q00532 whole entry): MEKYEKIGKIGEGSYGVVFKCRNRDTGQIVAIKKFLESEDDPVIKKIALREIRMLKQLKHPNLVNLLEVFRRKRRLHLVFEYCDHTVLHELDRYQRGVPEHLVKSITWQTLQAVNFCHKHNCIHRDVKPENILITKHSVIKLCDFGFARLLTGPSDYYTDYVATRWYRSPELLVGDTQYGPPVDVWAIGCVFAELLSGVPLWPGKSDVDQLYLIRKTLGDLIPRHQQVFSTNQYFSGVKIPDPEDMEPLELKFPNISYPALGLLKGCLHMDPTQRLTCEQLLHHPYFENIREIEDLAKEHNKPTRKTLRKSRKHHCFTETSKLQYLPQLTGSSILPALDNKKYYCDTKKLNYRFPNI
A further test deals with T4, DDR2 (Homo sapiens, UniProt Q16832).
T4 construct: purchased DiscoveRx (Fremont, CA), KinomeScan service
T4 sequence (Q16832 22-855): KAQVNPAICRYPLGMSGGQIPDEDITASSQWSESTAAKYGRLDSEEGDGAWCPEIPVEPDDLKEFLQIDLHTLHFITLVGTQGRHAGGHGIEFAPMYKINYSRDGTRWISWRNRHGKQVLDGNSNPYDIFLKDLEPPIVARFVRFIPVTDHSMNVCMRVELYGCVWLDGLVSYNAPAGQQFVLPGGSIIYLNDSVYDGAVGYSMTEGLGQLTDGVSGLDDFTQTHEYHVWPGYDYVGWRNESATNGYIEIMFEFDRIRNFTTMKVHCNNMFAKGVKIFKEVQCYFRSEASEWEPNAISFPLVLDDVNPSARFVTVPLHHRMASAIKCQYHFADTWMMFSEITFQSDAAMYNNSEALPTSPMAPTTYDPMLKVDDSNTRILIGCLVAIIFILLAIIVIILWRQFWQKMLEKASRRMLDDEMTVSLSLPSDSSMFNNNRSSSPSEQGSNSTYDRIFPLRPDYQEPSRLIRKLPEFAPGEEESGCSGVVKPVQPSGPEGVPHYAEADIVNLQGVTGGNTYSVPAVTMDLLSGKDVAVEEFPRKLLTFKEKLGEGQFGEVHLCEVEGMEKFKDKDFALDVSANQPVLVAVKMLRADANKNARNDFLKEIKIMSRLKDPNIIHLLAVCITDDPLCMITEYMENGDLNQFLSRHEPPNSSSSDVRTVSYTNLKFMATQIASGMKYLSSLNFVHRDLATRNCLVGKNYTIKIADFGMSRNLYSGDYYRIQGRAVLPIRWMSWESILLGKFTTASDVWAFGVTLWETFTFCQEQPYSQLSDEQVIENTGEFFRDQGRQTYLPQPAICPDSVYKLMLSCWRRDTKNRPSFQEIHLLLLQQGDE
In words: KinomeScan. In kind it is binding. Particulars: read-out: % Control.

A further test has as its target T5, TYRO3 (Homo sapiens, UniProt Q06418).
T5 construct: purchased DiscoveRx
The experiment in a line: KinomeScan. In kind it is binding. To be noted: read-out: % Control.

Another test addresses T6, FLT3 (Homo sapiens, UniProt P36888).
T6 construct: purchased DiscoveRx (Fremont, CA)
In words: KinomeScan. It counts as binding. Particulars: read-out: % Control.

In the next test the target is T7, NEK6 (Homo sapiens, UniProt Q9HC98).
T7 construct: purchased DiscoveRx
T7 sequence (Q9HC98 whole entry): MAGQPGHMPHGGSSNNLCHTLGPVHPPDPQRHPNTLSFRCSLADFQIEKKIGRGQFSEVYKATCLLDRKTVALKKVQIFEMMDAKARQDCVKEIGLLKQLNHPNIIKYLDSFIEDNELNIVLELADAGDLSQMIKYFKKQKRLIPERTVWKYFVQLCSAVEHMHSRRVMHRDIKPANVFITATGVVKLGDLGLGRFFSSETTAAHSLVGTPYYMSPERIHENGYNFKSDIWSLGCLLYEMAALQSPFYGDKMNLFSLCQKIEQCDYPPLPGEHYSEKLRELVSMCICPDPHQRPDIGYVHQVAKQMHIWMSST
The experiment in a line: KinomeScan. It counts as binding. To be noted: read-out: % Control.

A further test has as its target T8, MINK (Homo sapiens, UniProt Q8N4C8).
T8 construct: purchased DiscoveRx
The experiment in a line: KinomeScan. It counts as binding. To be noted: read-out: % Control.

For another test, the target named is T9, p38-delta (Homo sapiens, UniProt O15264).
T9 construct: purchased DiscoveRx
T9 sequence (O15264 whole entry): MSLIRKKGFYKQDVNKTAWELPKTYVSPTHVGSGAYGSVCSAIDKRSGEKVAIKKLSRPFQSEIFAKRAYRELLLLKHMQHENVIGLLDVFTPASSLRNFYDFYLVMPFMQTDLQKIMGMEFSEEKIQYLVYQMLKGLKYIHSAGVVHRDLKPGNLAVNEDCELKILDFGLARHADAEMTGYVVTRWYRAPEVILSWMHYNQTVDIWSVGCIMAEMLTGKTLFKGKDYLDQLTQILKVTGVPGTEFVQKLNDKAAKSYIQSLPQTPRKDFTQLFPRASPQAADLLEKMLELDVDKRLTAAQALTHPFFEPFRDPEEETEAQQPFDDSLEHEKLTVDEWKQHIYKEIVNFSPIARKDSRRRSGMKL
In words: KinomeScan. To be noted: read-out: % Control. It counts as binding.

Test [2] concerns A549. The experiment in a line: Clonogenicity (crystal violet). In kind it is cell-based. Particulars: 8 days. The procedure:
A549 lung cancer cells were plated at 300 cells per well in a 6-well plate and on the next day were treated with increasing concentrations of OGM2 for 8 days. The plate was fixed with formalin and stained with crystal violet. See FIG. 27B for results at the indicated concentrations.

Test [3] has as its system A549. In words: Cell Titer-Glo viability, Lung Adenocarcinoma. In kind it is cell-based. Particulars: 72 hours. As to the method:
OGM2 kills wide variety of cancer cell types. Cell sensitivity can be classified in to Very Sensitive (LC50<2 μM), Sensitive (LC50=2 to 10 μM), Mildly Sensitive (LC50>10 μM), and Refractory (no killing at 10 μM). The listed established cell were incubated with OGM2 at 2 μM or 10 μM for 72 hours under standard cell culture conditions, and relative cell number was assessed using Cell Titer-Glo Luminescent Cell Viability Assay (Promega™) following the manufacturer's instructions. Luminescence was determined using a Cytation 5 reader and Gen5 software package (BioTek™).
Cancer cells, which are very sensitive to killing by OGM2 (LCs <2 μM), with reported mRNA expression of GPR68 and the related proton sensing receptor GPR4. LC50's (concentrations causing 50% lethality) were determined using CellTiter-Glo (Promega™, G7570). Cells were plated in 12-well plates (CELLTREAT Scientific Products, 229112) in 1 ml of DMEM with high glucose, GlutaMAX, HEPES, or RPMI 1640 with Penicillin-Streptomycin (ThermoFisher™, 10564029, 11875119 and 15140122) and 10% FBS. Cells were incubated overnight at 37° C. in 5% CO2. Then 1 mL of fresh media was added with DMSO, OGM, or positive control (Erastin; APExBIO Technology, LLC, B1524) and cells incubated for 3 days. On the third day, all media was removed, cells were rinsed with 1×PBS, PBS was removed, and 200 μL of 1× Passive Lysis Buffer (Promega™, E1941) was added to each well. […]. […] Plates were briefly spun down and read on a GloMax-Multi Detection System (Promega™).
The cells listed in the tables above were incubated with OGM2 at 2 μM or 10 μM for 72 hours under standard cell culture conditions, and relative cell number was assessed using Cell Titer-Glo Luminescent Cell Viability Assay (Promega™) following the manufacturer's instructions. Luminescence was determined using a Cytation 5 reader and Gen5 software package (BioTek™). […] The consensus normalized expression value (“nTPM”=normalize transcript per million) was calculated as the maximum nTPM value for each gene in the two data sources.
(In ATP-based viability assays light output follows the ATP content of the culture.)

The test system of a further test is U87. In words: Immunogenic cell death markers (CRT externalization, ATP secretion). It counts as cell-based, human. The procedure:
OGM2 treatment of […] increases makers of immunogenic cell death (ICD, such as release of ATP into the extracellular environment ([…]) and calreticulin (CRT) externalization (FIG. 94B and FIG. 94C). Extracellular ATP content was assessed using the Enliten Atp Assay System (PROMEGA) (FIG. 94A). Calreticulin (CRT) externalization 3- and 6-hours post-treatment (see FIG. 94B and FIG. 94C) in U87 cells was assessed using immunofluorescence analysis using polyclonal antibody against calreticulin (Invitrogen™). Immunogenic cell death (ICD) is defined by expression or release of damage-associated molecular patterns (DAMPs), including extracellular ATP release and calreticulin externalization, which stimulate antitumor immune response, which in turn contributes to long-lasting protective antitumor immunity. […]
For the CRT externalization assay, U87 cells were seeded on 96-well plate, then treated with DMSO, […] (DOX), […] and […] (shown as OGM in the figures). […] Cells labelled with CRT were counted automatically with Lionheart™ automated microscope and % of CRT+ cells calculated. […]
For the ATP secretion assay, U87 cells were seeded on 96-well plate, then treated with DMSO, […] (DOX), […] and […] (OGM). At 6 hours, extracellular ATP levels were measured using the ENLITEN ATP Assay (Promega™). […]

T5 sequence (Q06418 41-890): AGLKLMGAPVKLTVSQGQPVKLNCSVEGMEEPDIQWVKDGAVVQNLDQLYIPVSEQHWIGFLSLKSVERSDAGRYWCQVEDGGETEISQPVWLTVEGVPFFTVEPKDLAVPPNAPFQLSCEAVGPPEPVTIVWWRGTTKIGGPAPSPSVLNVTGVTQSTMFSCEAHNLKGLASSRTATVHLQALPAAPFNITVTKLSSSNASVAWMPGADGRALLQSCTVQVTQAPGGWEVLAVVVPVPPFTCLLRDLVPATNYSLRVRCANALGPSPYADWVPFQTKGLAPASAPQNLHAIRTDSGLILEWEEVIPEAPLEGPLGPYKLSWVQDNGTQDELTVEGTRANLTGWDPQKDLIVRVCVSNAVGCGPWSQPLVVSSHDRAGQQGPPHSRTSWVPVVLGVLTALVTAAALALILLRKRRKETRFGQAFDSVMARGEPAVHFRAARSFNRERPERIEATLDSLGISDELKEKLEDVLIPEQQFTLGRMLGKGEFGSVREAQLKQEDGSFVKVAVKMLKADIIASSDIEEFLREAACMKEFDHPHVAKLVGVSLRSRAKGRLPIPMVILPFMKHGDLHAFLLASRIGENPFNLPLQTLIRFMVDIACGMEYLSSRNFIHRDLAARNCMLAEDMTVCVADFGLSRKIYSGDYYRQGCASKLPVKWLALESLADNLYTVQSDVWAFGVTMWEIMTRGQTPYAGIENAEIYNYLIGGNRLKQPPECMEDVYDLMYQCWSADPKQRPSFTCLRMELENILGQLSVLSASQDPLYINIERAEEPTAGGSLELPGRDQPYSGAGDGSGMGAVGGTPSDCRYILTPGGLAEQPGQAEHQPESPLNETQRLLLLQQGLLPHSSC
T6 sequence (P36888 27-993): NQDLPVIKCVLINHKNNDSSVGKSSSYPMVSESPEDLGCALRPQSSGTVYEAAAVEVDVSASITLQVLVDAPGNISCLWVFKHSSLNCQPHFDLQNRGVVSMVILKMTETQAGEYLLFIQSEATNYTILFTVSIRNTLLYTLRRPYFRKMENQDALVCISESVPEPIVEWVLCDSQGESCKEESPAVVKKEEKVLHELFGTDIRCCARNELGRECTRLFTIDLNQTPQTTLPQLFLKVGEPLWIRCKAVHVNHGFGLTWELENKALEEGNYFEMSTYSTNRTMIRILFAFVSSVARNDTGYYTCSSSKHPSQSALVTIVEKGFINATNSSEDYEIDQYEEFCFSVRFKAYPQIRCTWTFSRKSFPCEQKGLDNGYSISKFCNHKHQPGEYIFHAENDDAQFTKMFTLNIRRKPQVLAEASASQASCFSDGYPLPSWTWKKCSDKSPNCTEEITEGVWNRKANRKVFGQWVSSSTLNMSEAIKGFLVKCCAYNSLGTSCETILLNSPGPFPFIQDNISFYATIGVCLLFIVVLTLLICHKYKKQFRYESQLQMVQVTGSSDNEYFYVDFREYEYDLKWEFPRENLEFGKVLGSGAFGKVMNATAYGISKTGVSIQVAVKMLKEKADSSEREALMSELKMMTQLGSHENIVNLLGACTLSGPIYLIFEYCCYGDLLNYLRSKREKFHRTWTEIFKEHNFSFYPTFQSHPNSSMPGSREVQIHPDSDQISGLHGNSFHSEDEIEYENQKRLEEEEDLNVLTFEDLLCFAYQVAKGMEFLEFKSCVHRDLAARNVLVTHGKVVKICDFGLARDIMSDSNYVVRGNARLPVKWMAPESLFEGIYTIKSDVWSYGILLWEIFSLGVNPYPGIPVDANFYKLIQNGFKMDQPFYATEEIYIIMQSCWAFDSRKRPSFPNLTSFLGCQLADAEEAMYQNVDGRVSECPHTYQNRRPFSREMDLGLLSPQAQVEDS
T1 sequence (Q13043 whole entry): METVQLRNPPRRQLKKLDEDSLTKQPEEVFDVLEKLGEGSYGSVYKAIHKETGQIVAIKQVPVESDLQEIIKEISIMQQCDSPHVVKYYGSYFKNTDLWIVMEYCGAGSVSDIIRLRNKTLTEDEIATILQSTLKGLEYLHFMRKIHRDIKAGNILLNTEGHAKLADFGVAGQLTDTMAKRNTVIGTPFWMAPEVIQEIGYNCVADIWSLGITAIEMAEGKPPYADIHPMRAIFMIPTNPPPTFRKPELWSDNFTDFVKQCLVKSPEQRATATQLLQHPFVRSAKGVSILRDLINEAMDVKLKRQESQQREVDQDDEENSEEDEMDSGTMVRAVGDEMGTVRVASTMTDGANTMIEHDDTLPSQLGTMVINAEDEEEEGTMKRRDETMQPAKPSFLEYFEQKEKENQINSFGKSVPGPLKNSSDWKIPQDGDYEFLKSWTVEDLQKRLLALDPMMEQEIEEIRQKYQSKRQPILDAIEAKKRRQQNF

In the case of `CCc1ccc2c(c1)C1(NN=C(c3cccc4ccccc34)S1)C(=O)N2` (stereo not shown) [OGM1, 5-ethyl-5′-naphthalen-1-ylspiro[1H-indole-3,2′-3H-1,3,4-thiadiazole]-2-one], the remaining binding at 10 µM was determined as 100% on MST1; 77% on KIT(V559D, T670I); 77% in [1]; 88% at CDKL1; 86% on DDR2; 100% on TYRO3. The remaining binding at 10 µM came out at 79% on FLT3, 100% at NEK6, 97% at MINK and 81% on p38-delta.
With `CCc1ccc2c(c1)C1(NN=C(c3ccccc3)S1)C(=O)N2` (stereo not shown) [OGM2], in the test with A549 [2], the clonogenicity entry is “reduced the clonogenicity of lung cancer cells”. In the test with A549 [3], the “% Survival 2 μM OGM” value is recorded as 33.6% and the “% Survival 10 μM OGM” value is given as 18.0%. Further, the CC50 with A549 [3] (Homo sapiens, A549, read-out: LC50 (the source's name)) is less than 2 µM. Further, the “externalization of CRT” value in the test with U87 (3 hours of treatment) is “significant externalization of CRT”. The “secretion of ATP” value in the test on U87 (6 hours) was “secretion of ATP”.
